Drawing on ChEMBL document CHEMBL1909046, “DrugMatrix in vitro pharmacology data”, this text covers IC50 and Ki for 21 compounds.

For assay [1], the target named is T1, C-X-C chemokine receptor type 2 (Homo sapiens, UniProt P25025). Further: in other assays of this panel Not Active means under 50% inhibition at 10 µM.
T1 sequence (P25025 whole entry): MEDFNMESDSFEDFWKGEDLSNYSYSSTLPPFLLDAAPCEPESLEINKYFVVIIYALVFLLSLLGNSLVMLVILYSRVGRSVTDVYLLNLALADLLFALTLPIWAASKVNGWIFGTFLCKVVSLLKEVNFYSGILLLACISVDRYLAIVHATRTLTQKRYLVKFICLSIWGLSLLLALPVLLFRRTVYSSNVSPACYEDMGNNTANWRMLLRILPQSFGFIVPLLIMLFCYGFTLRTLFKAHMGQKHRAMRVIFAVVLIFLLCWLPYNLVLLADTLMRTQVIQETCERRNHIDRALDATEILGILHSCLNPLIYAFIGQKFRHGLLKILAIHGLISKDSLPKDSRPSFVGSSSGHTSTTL
The assay is classed as cell membranes, CHO-K1, Membrane. Conditions: cho-k1.

Assay [2] deals with T2, C-X-C chemokine receptor type 1 (Homo sapiens, UniProt P25024).
T2 sequence (P25024 whole entry): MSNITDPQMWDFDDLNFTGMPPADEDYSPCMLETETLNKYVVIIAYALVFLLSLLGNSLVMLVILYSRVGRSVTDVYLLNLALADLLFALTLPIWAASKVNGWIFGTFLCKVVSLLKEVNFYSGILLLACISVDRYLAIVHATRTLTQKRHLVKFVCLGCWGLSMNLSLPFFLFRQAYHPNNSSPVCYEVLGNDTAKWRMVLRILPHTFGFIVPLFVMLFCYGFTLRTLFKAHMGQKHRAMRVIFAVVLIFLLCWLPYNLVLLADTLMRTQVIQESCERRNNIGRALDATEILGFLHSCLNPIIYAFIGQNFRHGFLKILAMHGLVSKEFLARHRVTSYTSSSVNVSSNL

Assay [3] deals with T3, Alpha-2C adrenergic receptor (Homo sapiens, UniProt P18825).
T3 sequence (P18825 whole entry): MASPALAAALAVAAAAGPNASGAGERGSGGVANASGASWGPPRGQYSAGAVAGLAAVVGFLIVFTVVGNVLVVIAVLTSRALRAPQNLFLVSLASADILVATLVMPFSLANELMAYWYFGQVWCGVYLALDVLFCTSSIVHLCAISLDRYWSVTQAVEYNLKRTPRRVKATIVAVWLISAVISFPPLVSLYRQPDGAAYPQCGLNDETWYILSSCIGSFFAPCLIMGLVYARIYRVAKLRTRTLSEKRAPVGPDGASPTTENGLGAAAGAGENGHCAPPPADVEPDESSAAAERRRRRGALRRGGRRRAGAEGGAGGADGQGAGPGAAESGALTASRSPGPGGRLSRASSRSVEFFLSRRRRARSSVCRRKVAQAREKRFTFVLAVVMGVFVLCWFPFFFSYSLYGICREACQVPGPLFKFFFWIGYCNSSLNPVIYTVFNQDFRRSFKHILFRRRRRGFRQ
Description: DRUGMATRIX: Adrenergic Alpha-2C radioligand binding (ligand: [3H] MK-912). The class given is cell membranes, Sf9, Membrane.

The nature of assay [4]: DRUGMATRIX: Serotonin (5-Hydroxytryptamine) 5-HT3 radioligand binding (ligand: [3H] GR-65630). The assay is classed as cell membranes, Membrane. Conditions: hek293, Not Active = under 50% inhibition at 10 µM.
Assay [5] addresses Protein kinase C alpha type (Homo sapiens, UniProt P17252). The assay is classed as cell-based. Conditions: sf9.
Another assay has as its target Melanocortin receptor 4 (Homo sapiens, UniProt P32245). The class given is cell membranes, Membrane. Conditions: hek293. Further: in other assays of this panel Not Active means under 50% inhibition at 10 µM.

A word on the IC50: it is the concentration that inhibits the measured activity by half. The Ki is a dissociation constant, usually derived from enzyme kinetics or from competition with a known ligand.

Chain of Melanocortin receptor 4 (P32245 whole entry): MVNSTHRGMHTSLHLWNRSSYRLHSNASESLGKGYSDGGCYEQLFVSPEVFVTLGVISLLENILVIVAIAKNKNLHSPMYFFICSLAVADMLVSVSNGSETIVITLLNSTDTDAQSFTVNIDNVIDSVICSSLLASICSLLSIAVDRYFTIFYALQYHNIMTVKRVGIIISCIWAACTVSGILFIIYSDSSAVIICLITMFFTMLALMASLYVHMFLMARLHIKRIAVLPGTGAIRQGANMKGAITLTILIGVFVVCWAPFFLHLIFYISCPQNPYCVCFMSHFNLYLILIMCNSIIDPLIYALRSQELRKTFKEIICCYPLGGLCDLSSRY

Turning to `CN1C[C@H](CNC(=O)OCc2ccccc2)C[C@@H]2c3cccc4c3c(cn4C)C[C@H]21` [METERGOLINE], the IC50 entry in assay [1] is “Not Active”; in assay [2] it was “Not Active”; in assay [3] (read-out: IC50), 189 nM; in assay [4], “Not Active”; in assay [5], “Not Active”; at Melanocortin receptor 4, “Not Active”. Moreover, the Ki is 27 nM in assay [3] (read-out: Ki) and “Not Active” in assay [4].
For the compound `Oc1ccc(/C=C/c2cc(O)cc(O)c2)cc1` [RESVERATROL], the IC50 entry (in assay [1]; in assay [2]; in assay [3] (sf9); in assay [4]; in assay [5]; on Melanocortin receptor 4) was “Not Active” throughout. Also, the Ki entry in assay [4] was “Not Active”.
For the compound `CC1=C(/C=C/C(C)=C/C=C/C(C)=C/C(=O)O)C(C)(C)CCC1` [TRETINOIN], the IC50 entry (in assay [1]; in assay [2]; in assay [3] (sf9); in assay [4]; in assay [5]; on Melanocortin receptor 4) was “Not Active” throughout. Moreover, the Ki result in assay [4] was “Not Active”.
Turning to `CC[C@@]1(O)C(=O)OCc2c1cc1n(c2=O)Cc2cc3c(CN(C)C)c(O)ccc3nc2-1` [TOPOTECAN], the IC50 entry (in assay [1]; in assay [2]; in assay [3] (sf9); in assay [4]; in assay [5]; at Melanocortin receptor 4) was “Not Active” throughout. Besides, in assay [4], the Ki entry is recorded as “Not Active”.
As for `O=C(OC[C@H]1O[C@@H](OC(=O)c2cc(O)c(O)c(OC(=O)c3cc(O)c(O)c(O)c3)c2)[C@H](OC(=O)c2cc(O)c(O)c(OC(=O)c3cc(O)c(O)c(O)c3)c2)[C@@H](OC(=O)c2cc(O)c(O)c(OC(=O)c3cc(O)c(O)c(O)c3)c2)[C@@H]1OC(=O)c1cc(O)c(O)c(OC(=O)c2cc(O)c(O)c(O)c2)c1)c1cc(O)c(O)c(OC(=O)c2cc(O)c(O)c(O)c2)c1` [TANNIC ACID], the IC50 entry (in assay [1]; in assay [2]; in assay [3] (sf9); in assay [4]; in assay [5]; against Melanocortin receptor 4) was “Not Active” each time. For the same compound, the Ki entry in assay [4] is reported as “Not Active”.
As for `CC(Cl)(Cl)Cl` [TRICHLOROETHANE], the IC50 result (in assay [1]; in assay [2]; in assay [3] (sf9); in assay [4]; in assay [5]; at Melanocortin receptor 4) was “Not Active” each time. Besides, the Ki result in assay [4] is on record as “Not Active”.
For the compound `C=CCc1ccc2c(c1)OCO2` [SAFROLE], the IC50 result (in assay [1]; in assay [2]; in assay [3] (sf9); in assay [4]; in assay [5]; against Melanocortin receptor 4) was “Not Active” in each case. For the same compound, the Ki entry in assay [4] is recorded as “Not Active”.
Turning to `O=C1CC[C@@]2(O)[C@H]3Cc4ccc(O)c5c4[C@@]2(CCN3CC2CC2)[C@H]1O5` [NALTREXONE], the IC50 result (in assay [1]; in assay [2]; in assay [3] (sf9); in assay [4]; in assay [5]; against Melanocortin receptor 4) was “Not Active” in each case. Also, the Ki entry in assay [4] is “Not Active”.
For `CN1C(=O)OC(C)(C)C1=O` [TRIMETHADIONE], the IC50 entry (in assay [1]; in assay [2]; in assay [3] (sf9); in assay [4]; in assay [5]; against Melanocortin receptor 4) was “Not Active” in each case. In addition, the Ki entry in assay [4] is “Not Active”.
As to `CC(O)C(=O)O` (stereo not drawn) [LACTIC ACID], the IC50 entry (in assay [1]; in assay [2]; in assay [3] (sf9); in assay [4]; in assay [5]; against Melanocortin receptor 4) was “Not Active” throughout. Moreover, the Ki entry in assay [4] is on record as “Not Active”.
Turning to `CS(=O)(=O)c1ccc(C2=C(c3ccccc3)C(=O)OC2)cc1` [ROFECOXIB], the IC50 entry (in assay [1]; in assay [2]; in assay [3] (sf9); in assay [4]; in assay [5]; on Melanocortin receptor 4) was “Not Active” in each case. Besides, the Ki result in assay [4] is given as “Not Active”.
As for `C[N+]1(C)[C@@H]2C[C@@H](OC(=O)[C@H](CO)c3ccccc3)C[C@H]1[C@@H]1O[C@@H]12.[Br-]` [METHSCOPOLAMINE BROMIDE], the IC50 result (in assay [1]; in assay [2]; in assay [3] (sf9); in assay [4]; in assay [5]; on Melanocortin receptor 4) was “Not Active” each time. For the same compound, the Ki entry in assay [4] is on record as “Not Active”.
In the case of `Cc1nnc(NS(=O)(=O)c2ccc(N)cc2)s1` [SULFAMETHIZOLE], the IC50 result (in assay [1]; in assay [2]; in assay [3] (sf9); in assay [4]; in assay [5]; on Melanocortin receptor 4) was “Not Active” throughout. Also, the Ki result in assay [4] is given as “Not Active”.
Consider `CC(=O)O[C@]1(C(C)=O)CC[C@H]2[C@@H]3C[C@H](C)C4=CC(=O)CC[C@]4(C)[C@H]3CC[C@@]21C` [MEDROXYPROGESTERONE ACETATE], for which the IC50 entry (in assay [1]; in assay [2]; in assay [3] (sf9); in assay [4]; in assay [5]; against Melanocortin receptor 4) was “Not Active” each time. The Ki result in assay [4] was “Not Active”.
On to `CC1(C)[C@H](C(=O)O)N2C(=O)C[C@H]2S1(=O)=O` [SULBACTAM], for which the IC50 result (in assay [1]; in assay [2]; in assay [3] (sf9); in assay [4]; in assay [5]; against Melanocortin receptor 4) was “Not Active” in each case. Also, in assay [4], the Ki result is reported as “Not Active”.
On to `O=C(O)c1cc(/N=N/c2ccc(S(=O)(=O)Nc3ccccn3)cc2)ccc1O` [SULFASALAZINE], for which the IC50 result (in assay [1]; in assay [2]; in assay [3] (sf9); in assay [4]; in assay [5]; on Melanocortin receptor 4) was “Not Active” throughout. Moreover, the Ki entry in assay [4] is “Not Active”.
For `CCN(CC)CCNC(=O)c1cc(Cl)c(N)cc1OC` [METOCLOPRAMIDE], the IC50 entry was “Not Active” in assay [1]; “Not Active” in assay [2]; “Not Active” in assay [3] (sf9); 4010 nM in assay [4] (read-out: IC50); “Not Active” in assay [5]; “Not Active” against Melanocortin receptor 4. In addition, in assay [4] (read-out: Ki), the Ki was 902 nM.
Take `COC(=O)Nc1nc2ccc(C(=O)c3ccccc3)cc2[nH]1` [MEBENDAZOLE]: the IC50 result (in assay [1]; in assay [2]; in assay [3] (sf9); in assay [4]; in assay [5]; on Melanocortin receptor 4) was “Not Active” in each case. For the same compound, in assay [4], the Ki entry was “Not Active”.
Consider `Cc1ccnc(NS(=O)(=O)c2ccc(N)cc2)n1` [SULFAMERAZINE], for which the IC50 entry (in assay [1]; in assay [2]; in assay [3] (sf9); in assay [4]; in assay [5]; on Melanocortin receptor 4) was “Not Active” each time. For the same compound, in assay [4], the inhibition constant Ki entry is on record as “Not Active”.
For the compound `Cc1cccc(C)c1NC(=O)C(C)N` (stereo not drawn) [TOCAINIDE], the IC50 entry (in assay [1]; in assay [2]; in assay [3] (sf9); in assay [4]; in assay [5]; against Melanocortin receptor 4) was “Not Active” each time. Besides, the Ki entry in assay [4] is given as “Not Active”.
In the case of `CC#C[C@]1(O)CC[C@H]2[C@@H]3CCC4=CC(=O)CCC4=C3[C@@H](c3ccc(N(C)C)cc3)C[C@@]21C` [MIFEPRISTONE], the IC50 entry (in assay [1]; in assay [2]; in assay [3] (sf9); in assay [4]; in assay [5]; against Melanocortin receptor 4) was “Not Active” each time. Also, in assay [4], the Ki result is reported as “Not Active”.
